Measurements reported in patent US10563263B2, “Genetic polymorphisms associated with statin response and cardiovascular diseases, methods of detection and uses thereof” (CELERA CORPORATION, priority 2010, dated 2020).

System: recurrent MI
Experiment: CARE: CHD statin response (recurrent MI) by SNP genotype, hazard ratio pravastatin vs placebo (Table 22)
Format: in vivo, human
Details: rs873134 (hCV2652047), ref = placebo
Description: (§1) In the analysis for which the results are provided in Table 22, the endpoint was recurrent MI, and the analysis was adjusted for age, gender, hypertension, diabetes, base LDL and HDL, and whether an individual was a current smoker.
In Tables 20-22, certain columns are labeled “RESP”, “PLACEBO, OR “ALL”. “RESP” is for statin response as measured by comparing risk (risk for stroke, including TIA, in Tables 20-21, and risk for CHD, specifically recurrent MI, in Table 22) in the pravastatin-treated group with risk in the placebo-treated group, “PLACEBO” is the placebo-treated group, and “ALL” is the combination of the placebo-treated group and the pravastatin-treated group. “RESP” is the analysis to assess statin response in the indicated genotype group.
“EVENTS” indicates the total number of events (stroke or TIA for Tables 20-21, and recurrent MI for Table 22) in individuals with the indicated genotype.
“HR” indicates the hazard ratio.
CARE was a secondary prevention trial and WOSCOPS was a primary prevention trial.
as §1, with “Thus, SNP rs873134 is an example of a SNP that is associated with statin response for reducing risk for both stroke and CHD. In” for “In”

SMILES: CC[C@H](C)C(=O)O[C@H]1C[C@H](O)C=C2C=C[C@H](C)[C@H](CC[C@@H](O)C[C@@H](O)CC(=O)O)[C@H]21 [Pravastatin, pravastatin]
- HR_RESP (hazard ratio pravastatin vs placebo, CHD) (MODE DOM, genotype TC + TT): 0.85
- HR_RESP (hazard ratio pravastatin vs placebo, CHD) (MODE GEN, genotype CC): 0.48
- HR_RESP (hazard ratio pravastatin vs placebo, CHD) (MODE GEN, genotype TC): 1
- HR_RESP (hazard ratio pravastatin vs placebo, CHD) (MODE GEN, genotype TT): 0.57
